Measured values taken from patent US20180118722A1, “NOVEL ARYL-CYANOGUANIDINE COMPOUNDS” (Bayer Pharma Aktiengesellschaft, priority 2015, published 2018).

Legend:
SMYD2 [1] = molecular target: T1, SMYD2 (Homo sapiens, UniProt Q9NRG4); experiment: Scintillation proximity assay (SPA) for detection of SMYD2 enzymatic inhibition; format: biochemical; parameters: The SMYD2 full length enzyme was produced in-house by expression (with an N-terminal 6×His tag) in E. coli; 6xHis (N); made in house; host or cells: E. coli; details: p53 Peptide substrate 1.0 μM, 3H-SAM 60 nM, 30 min at 22° C.; read-out: IC50 [mol/l] (SPA Assay)
T1 sequence (Q9NRG4 whole entry): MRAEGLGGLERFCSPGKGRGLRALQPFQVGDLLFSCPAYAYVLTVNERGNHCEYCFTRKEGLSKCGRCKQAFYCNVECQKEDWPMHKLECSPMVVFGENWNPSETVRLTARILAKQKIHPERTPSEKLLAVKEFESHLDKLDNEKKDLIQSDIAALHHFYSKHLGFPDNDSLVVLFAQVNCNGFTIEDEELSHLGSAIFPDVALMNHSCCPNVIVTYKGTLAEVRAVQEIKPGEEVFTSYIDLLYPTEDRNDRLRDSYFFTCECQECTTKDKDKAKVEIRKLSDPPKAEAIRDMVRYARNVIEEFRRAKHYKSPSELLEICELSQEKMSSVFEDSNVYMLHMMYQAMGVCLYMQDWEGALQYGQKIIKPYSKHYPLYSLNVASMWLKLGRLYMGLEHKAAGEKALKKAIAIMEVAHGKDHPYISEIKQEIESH
Text: 1.1 Scintillation Proximity Assay (SPA) for Detection of SMYD2 Enzymatic Inhibition
SMYD2 inhibitory activities of the compounds described in the present invention were quantified using a scintillation proximity assay (SPA) which measures methylation by the enzyme of the synthetic, biotinylated peptide Btn-Ahx-[…]−Amid×TFA (Biosyntan) derived from p53 and referred to from here on as “p53 Peptide”. The SMYD2 full length enzyme was produced in-house by expression (with an N-terminal 6×His tag) in E. coli and purification by affinity chromatography on a Ni-NTA Sepharose column followed by a size exclusion chromatography step on a Superdex 200 16/60 column (GE Healthcare).
In a typical assay 11 different concentrations of each compound (0.1 nM, 0.33 nM, 1.1 nM, 3.8 nM, 13 nM, 44 nM, 0.15 μM, 0.51 μM, 1.7 μM, 5.9 μM and 20 μM) were tested in duplicate within the same microtiter plate. To this end, 100-fold concentrated compound solutions (in DMSO) were previously prepared by serial dilution (1:3.4) of 2 mM stocks in a clear low volume 384-well source microtiter plate (Greiner Bio-One), from which 50 nl of compound solutions were transferred into a white low volume test microtiter plate from the same supplier. […] IC50 values were calculated by fitting the normalized inhibition data to a 4-parameter logistic equation using the “Screener” analysis software from Genedata.

SMYD2 [2] = molecular target: T1, SMYD2; experiment: In Cell Western (ICW) cell-based assay for detection of SMYD2 methylation activity (p53K370me1) in SMYD2 overexpressing KYSE-150 cells; parameters: expressed in transfected cells; host or cells: KYSE-150 (human esophageal carcinoma, DSMZ ACC 375); details: 72 h treatment, p53K370me1 signal, read-out: IC50 [mol/l] (ICW assay)
Text: 1.2 Cell-Based Assay for Detection of SMYD2 Methylation Activity
For the detection of SMYD2 cellular methylation activity an In Cell Western (ICW) assay was established. This assay allows rapid processing of multiple samples for SMYD2 methylation derived immunofluorescence signals, with normalization to cell number via the use of the nucleic acid dye DRAQS. KYSE-150 cells (human esophageal carcinoma cell line; DSMZ-German Collection of Microorganisms and Cell Cultures; No: ACC 375) have been stably transfected with a construct expressing wild-type SMYD2 (NCBI Reference Sequence: NP_064582.2). […]
For conducting the ICW assay 5000 SMYD2 overexpressing KYSE-150 cells/well were seeded in 96-well plates (SIGMA) and cultivated for 24 h. […] After 5 washes with PBS, the fluorescence in each well was measured on an Odyssey (LI-COR) scanner at 800 nm (p53K370me1 signal; 764 nm excitation) and 700 nm (DRAQS signal; 683 nm excitation). Fluorescence intensity was quantified and normalized to background and DRAQS signals. IC50 values were calculated by fitting the normalized inhibition data to a 4-parameter logistic equation (Minimum, Maximum, IC50, Hill; Y=Max+(Min−Max)/(1+(X/IC50)Hill)) for each tested compound. For IC50 determination C0 (=no inhibition) was defined as the signal measured for DMSO treated controls. […]

Row | IC50 (SMYD2 [1]) | IC50 (SMYD2 [2]) | Compound
1 | 302 nM | 171 nM | N#C/N=C(/Nc1cccc(OC(F)F)c1)N1CC(N2CCC(N)C2=O)C(c2ccc(Cl)c(Cl)c2)=N1 (stereo not shown) [Example 2, 4-(3-amino-2-oxopyrrolidin-1-yl)-N′-cyano-3-(3,4-dichlorophenyl)-N-[3-(difluoromethoxy)phenyl]-4,5-dihydro-1H-pyrazole-1-carboximidamide]
2 | 31.6 nM | 100 nM | N#C/N=C(/Nc1cccc(OC(F)F)c1)N1CC(N2CCCC(N)C2=O)C(c2ccc(Cl)c(Cl)c2)=N1 (stereo not shown) [Example 1, 4-(3-amino-2-oxopiperidin-1-yl)-N′-cyano-3-(3 ,4-dichlorophenyl)-N-[3-(difluoromethoxy)phenyl]-4,5-dihydro-1H-pyrazole-1-carboximidamide]
